Experimental data from patent US8921351B2, “Liquid crystalline phytosterol-glycerine complex for enhanced bioavailability and water dispersal” (Brandeis University, priority 2012, dated 2014).

How the values were obtained:
[1] = cited from earlier work
[2] = Mutual solubility of phytosterols with glycerine or propylene glycol at 150° C.; assay type: physicochemical
Text: It was discovered that a substantial amount of glycerine can be combined with phytosterol to form a complex (up to approximately 20% glycerine based on the weight of phytosterol). This was surprising given that glycerine is a low molecular weight hydrophilic substance whereas phytosterols (e.g., beta-sitosterol, campesterol and stigmasterol) are highly hydrophobic substances. […] The question arose, why can 20% glycerine dissolve into melted phytosterols when a small amount of phytosterol will not dissolve into glycerine. […] For example, equal weight percentages of these ingredients dissolve easily in one another.

[3] = Saturation uptake of glycerine into melted non-esterified phytosterols; assay type: physicochemical
Protocol: An experiment was conducted to determine the “saturation uptake” level during the chemical interaction between phytosterols and glycerine, The saturation uptake level can be either an adsorption phenomenon or a solubility phenomenon. First, the saturation level of glycerine uptake into non-esterified phytosterols was determined Mixed phytosterols that had been purified from soybean oil, and containing principally beta-sitosterol, campesterol and stigmasterol (CoroWise® FG-50), were heated, […] Increasing levels of glycerine (approximately 5, 10, 20 and 25 parts by weight) could be adsorbed or dissolved in 100 parts by weight of heated and melted free phytosterols. The evidence for adsorption (or solubility) was that a single melted phase of liquid was visible in heated glass test tubes containing these mixtures, whereas when larger amounts of glycerine were added, the glycerine formed a separate clear phase beneath the melted phytosterols. Upon cooling and solidification of the phytosterol samples containing between approximately 5 and 25 parts by weight of glycerine, the resulting solids were dry to the touch with no apparent free glycerine liquid. […]

CCCCCO [n-amyl alcohol]
solubility limit in water [1]: 2.7 g per 100 g water

CC(O)CO (stereo not shown) [propylene glycol]
miscibility of propylene glycol and phytosterols [2]: substantially miscible

OCC(O)CO [glycerine]
saturation level of glycerine relative to phytosterols [3]: ~20 % by weight
solubility limit (saturation level) of glycerine in melted phytosterols ([3]; phytosterols melted at approximately 135° C.): about 25 g per 100 g phytosterols
